Assays:
HIV-1 protease = HIV-1 protease (Human immunodeficiency virus type 1 group M subtype B, UniProt P04585); test: Fluorogenic Assay for Screening Inhibitors of HIV Protease; details: pH 4.5
[1] = Cytotoxicity in uninfected MT4 cells (MTT); format: cell-based; details: human, 5 days, n=four duplicate determinations, read-out: CTC50 (50% cytotoxicity concentration)
Procedure: The anti-HIV activity of the compound of the invention was determined in MF4 cells according to the following procedure: MT4 cells were infected with cell-free supernatant of HIVIIIB (previously frozen with known 50% tissue culture infectious dose (TCID50) at 0.003 multiplicity of infection (MOI)) for one hour. After one hour infection, cells were washed twice to remove residual viruses, resuspended in culture media and seeded into 96-well tissue culture plates at 1×10^4 cells per well with various half-log dilutions of compounds. Uninfected cells were included a toxicity and cell controls. […] All assay plates were incubated in a 37° C. incubator for 5 days. […] SDS (20%) with 0.02N HCl in water was added at 50 μL per well to lyse cells. Plates were incubated overnight for complete cell lysis and then read on a microtiter plate reader at 570/650 nm wavelengths to determine cell optical density (O.D.). Raw data was analysed for percent inhibition by the following formula: [formula]
The 50% cytotoxicity concentration (CTC50) was calculated using uninfected MT4 cells

HIVIIIB = test: Antiviral Activity: anti-HIV activity in MT4 cells infected with HIVIIIB (MTT); format: cell-based; details: Human immunodeficiency virus 1, 120 h, MOI 0.003, 5 days, n=four duplicate determinations
Procedure: The anti-HIV activity of the compound of the invention was determined in MF4 cells according to the following procedure: MT4 cells were infected with cell-free supernatant of HIVIIIB (previously frozen with known 50% tissue culture infectious dose (TCID50) at 0.003 multiplicity of infection (MOI)) for one hour. After one hour infection, cells were washed twice to remove residual viruses, resuspended in culture media and seeded into 96-well tissue culture plates at 1×10^4 cells per well with various half-log dilutions of compounds. Uninfected cells were included a toxicity and cell controls. RPMI 1640 media (GIBCO) with 10% fetal bovine serum was used as culture media. Various concentrations (50%, 25% and 12.5%) of human serum (SIGMA) were added to culture media resulting in final concentrations of 60%, 35% and 22.5% total serum. All assay plates were incubated in a 37° C. incubator for 5 days. The compound 3-[4,5-dimethylthiozol-2-yl]-2,5-diphenyltetrazolium bromide (MTT, SIGMA, 5 mg .mL stock in PBS) was then added to all wells at 25 μL per well and incubated for 4 hours. SDS (20%) with 0.02N HCl in water was added at 50 μL per well to lyse cells. Plates were incubated overnight for complete cell lysis and then read on a microtiter plate reader at 570/650 nm wavelengths to determine cell optical density (O.D.). Raw data was analysed for percent inhibition by the following formula: [formula]
The 50% effective concentration (EC50) was calculated by the median effect equation (Chou, 1975, Proc. Int. Cong. Pharmacol. 6th p. 619) to determine the efficacy of compound. The 50% cytotoxicity concentration (CTC50) was calculated using uninfected MT4 cells
Under these conditions, the data of Table 2 was obtained (n=four duplicate determinations).

Row | Structure (SMILES) | inhibition at 0.0005 µM (HIV-1 protease) [%] | EC50 (HIVIIIB) [nM] | inhibition at 0.001 µM (HIV-1 protease) [%] | inhibition at 0.0011 µM (HIV-1 protease) [%] | CC50 at 120 h [1] [nM] | inhibition at 0.0014 µM (HIV-1 protease) [%]
1 | CC(C)[C@H](NC(=O)OCc1cncs1)C(=O)N[C@@H](Cc1ccccc1)C[C@H](O)[C@H](Cc1ccccc1)NC(=O)O[C@H]1CO[C@H]2OCC[C@H]21 [Example 42, (2S,3S,5S)-5-(N-(N-((5-Thiazolyl)methoxycarbonyl)-L-valinyl)amino)-2-((3R,3aS,6aR)-bis-tetrahydrofuran-3-yl-oxycarbonyl)amino-1,6-diphenyl-3-hydroxyhexane] | 80 | 70 |  |  | > 100000 | 
2 | CC(C)[C@@H](NC(=O)OCc1cncs1)C(=O)N[C@@H](Cc1ccccc1)C[C@H](O)[C@H](Cc1ccccc1)NC(=O)O[C@H]1CO[C@H]2OCC[C@H]21 [Example 43, (2S,3S,5S)-5-(N-(N-((5-Thiazolyl)methoxycarbonyl)-D-valinyl)amino)-2-((3R,3aS,6aR)-bis-tetrahydrofuran-3-yl-oxycarbonyl)amino-1,6-diphenyl-3-hydroxyhexane] | 42 | 270 |  |  | > 100000 | 
3 | CC(C)[C@@H](NC(=O)N(C)Cc1cncs1)C(=O)N[C@@H](Cc1ccccc1)C[C@H](O)[C@H](Cc1ccccc1)NC(=O)O[C@H]1CO[C@H]2OCC[C@H]21 [Example 44, (2S,3S,5S)-5-(N-(N-((N-Methyl-N-((5-thiazolyl)methyl)amino)carbonyl)-D-valinyl)amino)-2-((3R,3aS,6aR)-bis-tetrahydrofuran-3-yl-oxycarbonyl)amino-1,6-diphenyl-3-hydroxyhexane] | 72 | 370 |  |  | > 100000 | 
4 | CC(C)[C@H](NC(=O)N(C)Cc1cncs1)C(=O)N[C@@H](Cc1ccccc1)C[C@H](O)[C@H](Cc1ccccc1)NC(=O)O[C@H]1CO[C@H]2OCC[C@H]21 [Example 45, (2S,3S,5S)-5-(N-(N-((N-Methyl-N-((5-thiazolyl)methyl)amino)carbonyl)-L-valinyl)amino)-2-((3R,3aS,6aR)-bis-tetrahydrofuran-3-yl-oxycarbonyl)amino-1,6-diphenyl-3-hydroxyhexane] | 56 | 450 |  |  | > 100000 | 
5 | CC(C)c1nc(CN(C)C(=O)N[C@H](C(=O)N[C@@H](Cc2ccccc2)[C@@H](O)C[C@H](Cc2ccccc2)NC(=O)O[C@H]2CO[C@H]3OCC[C@H]32)C(C)C)cs1 [Example 46, (2S,3S,5S)-2-(N-(N-((N-Methyl-N-((2-isopropyl-4-thiazolyl)methyl)amino)carbonyl)-L-valinyl)amino)-5-((3R,3aS,6aR)-bis-tetrahydrofuran-3-yl-oxycarbonyl)amino-1,6-diphenyl-3-hydroxyhexane] | 74 | 34 |  |  | 56200 | 
6 | Cc1nc(CN(C)C(=O)N[C@H](C(=O)N[C@@H](Cc2ccccc2)C[C@H](O)[C@H](Cc2ccccc2)NC(=O)O[C@@H]2CO[C@@H]3OCC[C@@H]32)C(C)C)cs1 [Example 47, (2S,3S,5S)-5-(N-(N-((N-Methyl-N-((2-methyl-4-thiazolyl)methyl)amino)carbonyl)-L-valinyl)amino)-2-((3S,3aR,6aS)-bis-tetrahydrofuran-3-yl-oxycarbonyl)amino-1,6-diphenyl-3-hydroxyhexane] | 82 | 55 |  |  | > 100000 | 
7 | CC(C)c1nc(CN(C)C(=O)N[C@H](C(=O)N[C@@H](Cc2ccccc2)C[C@H](O)[C@H](Cc2ccccc2)NC(=O)O[C@@H]2CO[C@@H]3OCC[C@@H]32)C(C)C)cs1 [Example 48, (2S,3S,5S)-5-(N-(N-((N-Methyl-N-((2-isopropyl-4-thiazolyl)methyl)amino)carbonyl)-L-valinyl)amino)-2-((3S,3aR,6aS)-bis-tetrahydrofuran-3-yl-oxycarbonyl)amino-1,6-diphenyl-3-hydroxyhexane] | 80 | 11 |  |  | 46600 | 
8 | Cc1nc(CN(C)C(=O)N[C@H](C(=O)N[C@@H](Cc2ccccc2)C[C@H](O)[C@H](Cc2ccccc2)NC(=O)O[C@H]2CO[C@H]3OCC[C@H]32)C(C)C)cs1 [Example 49, (2S,3S,5S)-5-(N-(N-((N-Methyl-N-((2-methyl-4-thiazolyl)methyl)amino)carbonyl)-L-valinyl)amino)-2-((3R,3aS,6aR)-bis-tetrahydrofuran-3-yl-oxycarbonyl)amino-1,6-diphenyl-3-hydroxyhexane] | 74 | 42 |  |  | > 100000 | 
9 | CC(C)c1nc(CN(C)C(=O)N[C@H](C(=O)N[C@@H](Cc2ccccc2)C[C@H](O)[C@H](Cc2ccccc2)NC(=O)O[C@H]2CCOC2)C(C)C)cs1 [Example 50, (2S,3S,5S)-5-(N-(N-((N-Methyl-N-((2-isopropyl-4-thiazolyl)methyl)amino)carbonyl)-L-valinyl)amino)-2-(3S-tetrahydrofuran-3-yl-oxycarbonyl)amino-1,6-diphenyl-3-hydroxyhexane] | 68 | 32 |  |  | 56200 | 
10 | CC(C)c1nc(CN(C)C(=O)NC(C(=O)NC(Cc2ccccc2)CC(O)C(Cc2ccccc2)NC(=O)OC2COC3OCCC23)C(C)C)cs1 [Example 51, (2S,3S,5S)-5-(N-(N-((N-Methyl-N-((2-isopropyl-4-thiazolyl)methyl)amino)carbonyl)-D-valinyl)amino)-2-((3R,3aS,6aR)-bis-tetrahydrofuran-3-yl-oxycarbonyl)amino-1,6-diphenyl-3-hydroxyhexane] | 83 | 12 |  |  | > 100000 | 
11 | CC(=O)Oc1ccc(C(=O)N[C@@H](Cc2ccccc2)C[C@H](O)[C@H](Cc2ccccc2)NC(=O)O[C@H]2CO[C@H]3OCC[C@H]32)cc1 [Example 54, (2S,3S,5S)-5-(4-Acetoxy-benzoyl)amino-2-((3R,3aS,6aR)-bis-tetrahydrofuran-3-yl-oxycarbonyl)amino-1,6-diphenyl-3-hydroxyhexane] |  | 145 |  |  | > 100000 | 50

More lines, main results first:

Row | inhibition at 0.0005 µM (HIV-1 protease) [%] | EC50 (HIVIIIB) [nM] | inhibition at 0.001 µM (HIV-1 protease) [%] | inhibition at 0.0011 µM (HIV-1 protease) [%] | Structure (SMILES) | CC50 at 120 h [1] [nM] | inhibition at 0.0014 µM (HIV-1 protease) [%]
12 | 69 | 72 |  |  | Cc1nc(CN(C)C(=O)N[C@H](C(=O)N[C@@H](Cc2ccccc2)C[C@H](O)[C@H](Cc2ccccc2)NC(=O)OC2COC3OCCC23)C(C)C)cs1 (stereo partly drawn) [Example 52, (2S,3S,5S)-5-(N-(N-((N-Methyl-N-((2-methyl-4-thiazolyl)methyl)amino)carbonyl)-L-valinyl)amino)-2-((3R,3aS,6aR),(3S,3aR,6aS)-bis-tetrahydrofuran-3-yl-oxycarbonyl)amino-1,6-diphenyl-3-hydroxyhexane] | > 100000 | 
13 |  | 704 | 56 |  | O=C(N[C@@H](Cc1ccccc1)[C@@H](O)C[C@H](Cc1ccccc1)NC(=O)c1ccc(O)cc1)O[C@@H]1CO[C@@H]2OCC[C@@H]21 [Example 53, (2S,3S,5S)-5-(4-Hydroxy-benzoyl)amino-2-((3S,3aR,6aS)-bis-tetrahydrofuran-3-yl-oxycarbonyl)amino-1,6-diphenyl-3-hydroxyhexane] | > 100000 | 
14 | 82 | 11 |  |  | O=C(N[C@@H](Cc1ccccc1)[C@@H](O)C[C@H](Cc1ccccc1)NC(=O)c1ccc(O)cc1)O[C@H]1CO[C@H]2OCC[C@H]21 [Example 55, (2S,3S,5S)-5-(4-Hydroxy-benzoyl)amino-2-((3R,3aS,6aR)-bis-tetrahydrofuran-3-yl-oxycarbonyl)amino-1,6-diphenyl-3-hydroxyhexane] | 49500 | 
15 | 78 | 120 |  |  | O=C(N[C@@H](Cc1ccccc1)[C@@H](O)C[C@H](Cc1ccccc1)NC(=O)c1ccc(O)cc1Cl)O[C@H]1CO[C@H]2OCC[C@H]21 [Example 57, (2S,3S,5S)-5-(2-Chloro-4-hydroxy-benzoyl)amino-2-((3R,3aS,6aR)-bis-tetrahydrofuran-3-yl-oxycarbonyl)amino-1,6-diphenyl-3-hydroxyhexane] | 80900 | 
16 |  | 2610 |  | 50 | O=C(N[C@@H](Cc1ccccc1)[C@@H](O)C[C@H](Cc1ccccc1)NC(=O)c1cccc(O)c1)O[C@@H]1CO[C@@H]2OCC[C@@H]21 [Example 58, (2S,3S,5S)-5-(3-Hydroxy-benzoyl)amino-2-((3S,3aR,6aS)-bis-tetrahydrofuran-3-yl-oxycarbonyl)amino-1,6-diphenyl-3-hydroxyhexane] | > 100000 | 
